The source made the active and inactive calls. No cut-off for these calls is given here.
What was measured:
[1] = system: HepG2; test: Cytotoxicity against human HepG2 cells assessed as reduction in cell viability after 24 hrs by MTT assay; assay type: functional, cell-based; settings: for IC50: HepG2, 24 h
[2] = system: L02; test: Cytotoxicity against human LO2 cells assessed as reduction in cell viability after 24 hrs by MTT assay; assay type: cell-based; settings: L02, 24 h
[3] = system: THP-1; test: Cytotoxicity against human THP1 cells assessed as reduction in cell viability after 24 hrs by MTT assay; assay type: functional, cell-based; settings: for IC50: THP-1, 24 h
[4] = system: HeLa; test: Cytotoxicity against human HeLa cells assessed as reduction in cell viability after 24 hrs by MTT assay; assay type: functional, cell-based
[5] = system: K562; test: Cytotoxicity against human K562 cells assessed as reduction in cell viability after 24 hrs by MTT assay; assay type: functional, cell-based; settings: for IC50: K562, 24 h
[6] = system: HepG2; test: Downregulation of Bcl2 protein expression in human HepG2 cells at 50 uM after 3 hrs by western blot analysis; assay type: functional, cell-based
[7] = system: HepG2; test: Upregulation of Bax protein expression in human HepG2 cells at 50 uM after 3 hrs by western blot analysis; assay type: functional, cell-based
[8] = Drug uptake in human HepG2 cell nucleus at 10 mg/ml after 1 to 3 hrs by Hoechst 33342 staining based confocal laser scanning microscopic method; assay type: ADME, subcellular
[9] = Drug uptake in human HepG2 cell cytoplasm at 10 mg/ml after 1 to 3 hrs by Hoechst 33342 staining based confocal laser scanning microscopic method; assay type: ADME, subcellular
[10] = Drug uptake in human HepG2 cell nucleus at 10 mg/ml after 4 hrs by Hoechst 33342 staining based confocal laser scanning microscopic method; assay type: ADME, subcellular; settings: hepg2, 4 h
[11] = system: HepG2; test: Induction of apoptosis in human HepG2 cells after 24 hrs by Annexin V-FITC/propidium iodide staining based flow cytometry; assay type: functional, cell-based
[12] = system: Mus musculus; test: Toxicity in Balb/c nude mouse xenografted with human HepG2 cells assessed as change in body weight at 10 mg/kg/day, ip daily for 20 days measured every 2 days during compound dosing; assay type: organism-based; settings: in vivo
[13] = system: HepG2; test: Antitumor activity against human HepG2 cells xenografted in Balb/c nude mouse assessed as tumor growth inhibition at 10 mg/kg/day, ip daily for 20 days measured on day 21; assay type: functional, organism-based
[14] = system: HepG2; test: Cytotoxicity against human HepG2 cells assessed as cell morphology disruption at 10 mg/ml after 4 hrs by Hoechst 33342 staining based confocal laser scanning microscopic method; assay type: functional
[15] = Drug uptake in human HepG2 cell cytoplasm at 10 mg/ml after 4 hrs by Hoechst 33342 staining based confocal laser scanning microscopic method; assay type: ADME, subcellular; settings: hepg2, 4 h
[16] = system: HepG2; test: Antitumor activity against human HepG2 cells xenografted in Balb/c nude mouse assessed as tumor growth inhibition at 1 mg/kg/2 days, ip for 20 days measured on day 21; assay type: functional, organism-based

Row | SMILES | IC50 [1] [µM] | IC50 [2] [µM] | IC50 [3] [µM] | IC50 [4] [µM] | IC50 [5] [µM] | other results
1 | COc1cc(/C=C2\CN(C)C/C(=C\c3ccc(Cl)cc3Cl)C2=O)cc(OC)c1 | 6.25 | 18.8 | 6.07 | 7.76 | 11.9 | 
2 | CN1C/C(=C\c2ccc(C(F)(F)F)cc2)C(=O)/C(=C/c2ccccc2F)C1 | 4.14 | 18.6 | 5.93 | 6.56 | 6.34 | 
3 | COc1cc(/C=C2\CN(C)C/C(=C\c3cc(OC)c(OC)c(OC)c3)C2=O)cc(OC)c1 | 0.89 | 14.6 | 0.72 | 2.3 | 3.47 | Activity [1]: Dose-dependent effect; Activity [6]: Active; Activity [3]: Dose-dependent effect; Activity [4]: Dose-dependent effect; Activity [7]: Active; Activity [5]: Dose-dependent effect
4 | CN1C/C(=C\c2ccc(C(C)(C)C)cc2)C(=O)/C(=C/c2ccccc2F)C1 | 9.12 | 25.8 | 13.4 | 15.5 | 18.2 | 
5 | CN1C/C(=C\c2ccc(C(F)(F)F)cc2)C(=O)/C(=C/c2cccc([N+](=O)[O-])c2)C1 | 1.04 | 12.4 | 0.97 | 3.56 | 4.78 | Activity [1]: Dose-dependent effect; Activity [6]: Active; Activity [3]: Dose-dependent effect; Activity [4]: Dose-dependent effect; Activity [7]: Active; Activity [5]: Dose-dependent effect
6 | CN1C/C(=C\c2cccc([N+](=O)[O-])c2)C(=O)/C(=C/c2ccccc2F)C1 | 1.08 | 13.5 | 1.01 | 2.34 | 3.89 | 
7 | CN1C/C(=C\c2ccc(F)cc2)C(=O)/C(=C/c2cccc([N+](=O)[O-])c2)C1 | 9.34 | 17.6 | 7.16 | 6.25 | 11.2 | 
8 | COc1cc(/C=C2\CN(C)C/C(=C\c3ccc(Cl)cc3)C2=O)cc(OC)c1 | 5.95 | 18.9 | 5.86 | 11.2 | 13.3 | 
9 | COc1cc(/C=C2\CN(C)C/C(=C\c3ccc(F)cc3)C2=O)cc(OC)c1OC | 7.34 | 10.7 | 6.13 | 7.25 | 10.2 | 
10 | COc1cc(/C=C2\CN(C)C/C(=C\c3cccc([N+](=O)[O-])c3)C2=O)cc(OC)c1OC | 1.89 | 13.6 | 0.89 | 5.54 | 4.2 | 
11 | CN1C/C(=C\c2ccc(Br)cc2)C(=O)/C(=C/c2cccc([N+](=O)[O-])c2)C1 | 8.8 | 9.85 | 7.69 | 11.9 | > 20 | 
12 | CN1C/C(=C\c2ccc(C#N)cc2)C(=O)/C(=C/c2ccccc2F)C1 | 0.59 | 11 | 0.81 | 1.34 | 2.67 | 
13 | COc1cc(/C=C2\CN(C)C/C(=C\c3ccc(Cl)cc3Cl)C2=O)cc(OC)c1OC | 8.8 | 13.4 | 5.02 | > 20 | > 20 | 
14 | COc1cc(/C=C2\CN(C)C/C(=C\c3ccccc3F)C2=O)cc(OC)c1OC | 0.67 | 12.1 | 0.64 | 3.22 | 4.34 | Activity [1]: Dose-dependent effect; Activity [6]: Active; Drug uptake [8]: Not Active; Drug uptake [9]: Active; Drug uptake [10]: Active; Activity [11]: Dose-dependent effect; Activity [12]: Non-Toxic; Activity [3]: Dose-dependent effect; Activity [4]: Dose-dependent effect; TGI [13]: Active; Activity [7]: Active; Activity [14]: Active; Activity [5]: Dose-dependent effect; Drug uptake [15]: Not Active
15 | CN1C/C(=C\c2cccc([N+](=O)[O-])c2)C(=O)/C(=C/c2ccc(Cl)c(Cl)c2)C1 | 5.96 | 14.8 | 5.02 | 9.12 | 15.5 | 
16 | COc1cc(/C=C2\CN(C)C/C(=C\c3ccc(Br)cc3)C2=O)cc(OC)c1OC | 6.8 | 15.4 | 5.33 | 11.9 | 12.4 | 
17 | COc1cccc2c1C(=O)c1c(O)c3c(c(O)c1C2=O)C[C@@](O)(C(=O)CO)C[C@@H]3O[C@H]1C[C@H](N)[C@H](O)[C@H](C)O1 [DOXORUBICIN] | 0.68 | 6.93 | 0.67 | 2.23 |  | TGI [16]: Active
18 | COc1cc(/C=C2\CN(C)C/C(=C\c3ccc(Cl)c(Cl)c3)C2=O)cc(OC)c1 | 3.84 | 10.6 | 3.26 | 6.9 | 9.49 | 
19 | COc1cc(/C=C2\CN(C)C/C(=C\c3ccc(Cl)c(Cl)c3)C2=O)cc(OC)c1OC | 6.96 | 18.4 | 5.33 | 13.5 | 16.1 | 

Row | SMILES | IC50 [1] [µM] | IC50 [2] [µM] | IC50 [3] [µM] | IC50 [4] [µM] | IC50 [5] [µM] | other results
20 | CN1C/C(=C\c2ccc(C#N)cc2)C(=O)/C(=C/c2ccc(Cl)cc2Cl)C1 | 6.25 | 10.8 | 1.91 | 7.76 | 11.9 | 
21 | COc1cc(/C=C2\CN(C)C/C(=C\c3ccc(Cl)cc3)C2=O)cc(OC)c1OC | 8.25 | 14 | 7.2 | > 20 | > 20 | 
22 | COc1cc(/C=C/C(=O)CC(=O)/C=C/c2ccc(O)c(OC)c2)ccc1O [CURCUMIN] | 13.8 | 25.7 | 22.5 | 31.9 | 23.1 | 
23 | CN1C/C(=C\c2ccc(Br)cc2)C(=O)/C(=C/c2ccc(C#N)cc2)C1 | 4.84 | 10.5 | 4.4 | 5.9 | 7.42 | 
24 | CN1C/C(=C\c2ccc(Cl)cc2)C(=O)/C(=C/c2cccc([N+](=O)[O-])c2)C1 | 8.21 | > 20 | 7.87 | > 20 | > 20 | 
25 | COc1cc(/C=C2\CN(C)C/C(=C\c3ccc(F)cc3)C2=O)cc(OC)c1 | 6.14 | 21.9 | 5.04 | 10.2 | 11.2 | 
26 | COc1ccc(/C=C2\CN(C)C/C(=C\c3ccccc3F)C2=O)cc1OC | 8.76 | 10.5 | 11.2 | 14.3 | 18 | 
27 | CN1C/C(=C\c2ccc(F)cc2)C(=O)/C(=C/c2ccc(C#N)cc2)C1 | 6.14 | 20.9 | 5.03 | 10.2 | 11.2 | 
28 | COc1cc(/C=C2\CN(C)C/C(=C\c3ccccc3F)C2=O)cc(OC)c1 | 1.24 | 11.9 | 1.17 | 5.45 | 6.32 | 
29 | COc1cc(/C=C2\CN(C)C/C(=C\c3cccc([N+](=O)[O-])c3)C2=O)cc(OC)c1 | 1.84 | 10.8 | 1.77 | 2.56 | 4.42 | 
30 | COc1cc(/C=C2\CN(C)C/C(=C\c3ccc(C#N)cc3)C2=O)cc(OC)c1 | 0.88 | 14 | 0.94 | 3.42 | 4.65 | 
31 | COc1cc(/C=C2\CN(C)C/C(=C\c3ccc(Br)cc3)C2=O)cc(OC)c1 | 4.84 | 21.3 | 4.27 | 5.9 | 7.42 | 
32 | CN1C/C(=C\c2cccc([N+](=O)[O-])c2)C(=O)/C(=C/c2ccc(Cl)cc2Cl)C1 | 4.8 | 14 | 3.56 | 8.9 | 12.4 | 
33 | COc1cc(/C=C2\CN(C)C/C(=C\c3ccc(C#N)cc3)C2=O)cc(OC)c1OC | 1.14 | 18.6 | 0.82 | 3.42 | 4.29 | Activity [1]: Dose-dependent effect; Activity [6]: Active; Activity [3]: Dose-dependent effect; Activity [4]: Dose-dependent effect; Activity [7]: Active; Activity [5]: Dose-dependent effect
34 | CN1C/C(=C\c2cccc(Br)c2)C(=O)/C(=C/c2cccc([N+](=O)[O-])c2)C1 | 4.89 | 8.07 | 4.03 | 11.1 | 12.2 | 
35 | CN1C/C(=C\c2ccc(Cl)cc2)C(=O)/C(=C/c2ccc(C#N)cc2)C1 | 5.95 | 16.2 | 3.18 | 11.2 | 13.3 | 
36 | COc1ccc(/C=C2\CN(C)C/C(=C\c3ccccc3F)C2=O)cc1 | 12.2 | 22.1 | 15.4 | 23.4 | 18.4 | 
37 | CN1C/C(=C\c2ccc(C#N)cc2)C(=O)/C(=C/c2ccc(C(F)(F)F)cc2)C1 | 0.98 | 17.2 | 1.43 | 3.21 | 4.01 | 

From ChEMBL document CHEMBL4145528, “Novel dissymmetric 3,5-bis(arylidene)-4-piperidones as potential antitumor agents with biological evaluation in vitro and in vivo” (Eur J Med Chem, 2018)
